Literature values as cited in patent US20100055214A1, “METHOD FOR INCREASING BLOOD FLOW TO MAMMALIAN SKELETAL MUSCLE BY ADMINISTERING L-ARGNINE, CRATAEGUS EXTRACT, ARTICHOKE FLAVONOIDS AND GYMNOSTEMMA PENTAPHYLLUM EXTRACT” (H3 FORMULATIONS LTD., priority 2006, published 2010).

Settings: in vivo

Structure (SMILES): N=C(N)NCCC[C@H](N)C(=O)O [L-arginine]
- NO production: increase
- aerobic exercise capacity: increase aerobic exercise capacity
